Measurements as given in PubChem BioAssay (NCI).
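The concentration for 50% growth inhibition is given as GI50. TGI denotes the concentration required for complete inhibition of growth.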

Columns and labels:
Assay in all cases: growth of human tumour cells (NCI), 384-well format
SW-620 colon = system: SW-620 colon
KM12 colon = system: KM12 colon
OVCAR-4 ovarian = system: OVCAR-4 ovarian
SF-295 CNS = system: SF-295 CNS
T-47D breast = system: T-47D breast
IGROV1 ovarian = system: IGROV1 ovarian
NCI-H522 lung = system: NCI-H522 lung
UO-31 renal = system: UO-31 renal
MDA-MB-435 melanoma = system: MDA-MB-435 melanoma
A549 NSCLC = system: A549 NSCLC
UACC-62 melanoma = system: UACC-62 melanoma
U251 glioblastoma = system: U251 glioblastoma
SN12C renal = system: SN12C renal

Compound: CC#CC(=O)N1CC[C@@H](n2c(=O)n(-c3ccc(Oc4ccccc4)cc3)c3c(N)ncnc32)C1
- GI50 (SW-620 colon): 25.6 µM
- TGI (SW-620 colon): 55.9 µM
- GI50 (KM12 colon): 27.4 µM
- TGI (KM12 colon): > 76.8 µM
- GI50 (OVCAR-4 ovarian): 29.5 µM
- TGI (OVCAR-4 ovarian): > 100 µM
- GI50 (SF-295 CNS): 40.5 µM
- TGI (SF-295 CNS): > 100 µM
- GI50 (T-47D breast): 11.9 µM
- TGI (T-47D breast): 33.1 µM
- GI50 (IGROV1 ovarian): 16.8 µM
- TGI (IGROV1 ovarian): 37.4 µM
- GI50 (NCI-H522 lung): 5.88 µM
- TGI (NCI-H522 lung): 27.9 µM
- GI50 (UO-31 renal): 31.8 µM
- TGI (UO-31 renal): > 100 µM
- GI50 (MDA-MB-435 melanoma): 30 µM
- TGI (MDA-MB-435 melanoma): > 80.4 µM
- GI50 (A549 NSCLC): 34.8 µM
- TGI (A549 NSCLC): > 100 µM
- GI50 (UACC-62 melanoma): 22.8 µM
- TGI (UACC-62 melanoma): > 100 µM
- GI50 (U251 glioblastoma): 18.1 µM
- TGI (U251 glioblastoma): 40.3 µM
- GI50 (SN12C renal): 20.2 µM
- TGI (SN12C renal): > 90.9 µM
